Experimental data: PMC11672292, “Discovery of Balasubramide Derivative with Tissue‐Specific Anti‐Inflammatory Activity Against Acute Lung Injury by Targeting VDAC1” (Advanced Science, 2024)

Key:
[1] = test system: PBMCs from ALI patients; test: Cytosolic mtDNA release in LPS-stimulated PBMCs from ALI patients; type: cell-based, human; settings: 10 µM
Procedure: PBMCs isolation and stimulation were performed as previously described.^[ [40], [66] ^] Anticoagulated whole blood diluted equally with PBS was added to a 15 mL sterile centrifuge tube containing lymphocyte separation solution (#C0025, Beyotime, China), and centrifuged for 10 min at 2500 rpm. The layer of PBMCs at the plasma‐density gradient medium interface was transferred to a new sterile tube, dispersed with 10 mL DMEM, and centrifuged for 5 min at 800 rpm. The mononuclear cells at the bottom of the tube were resuspended in DMEM with 10% FBS at 5 × 10^5 cells/well in 24‐well plates. After discarding the supernatant, the PBMCs were incubated with DMSO or 10 µM (+)3C‐20 for 3 h in DMEM, stimulated with 100 ng mL^−1 LPS for another 3 h, and lysed with TRIzol reagent for total RNA extraction and following indicated experiments.

[2] = test system: RAW264.7 cells; test: CCK-8 cell viability assay; type: cell-based, mouse; settings: 10 μM, 24 h
Procedure: Cell viability was determined by CCK‐8 assay. RAW264.7 cells or mouse BMDMs cultured in a 96‐well plate were pretreated with various compounds at 10 µM or different concentrations of (+)3C‐20 for 24 h when cells reached 70% confluence and then were treated with DMEM containing 5 µL CCK‐8 reagent (A311, Vazyme, China) in a humidified atmosphere of 5% CO2 and 95% air for 1 h at 37 °C. The UV absorption values of the medium with CCK‐8 were measured at 450 nm in a ThermoFisher plate‐reader (VL0L0TD2, Waltham, USA).

[3] = test system: LPS-stimulated RAW264.7 cells; test: LPS-induced TNF-α release in RAW264.7 macrophages (ELISA); type: cell-based, mouse; settings: Mus musculus, RAW264.7 cells
Procedure: The anti‐inflammatory effects of all (+)‐balasubramide derivatives were evaluated in Lipopolysaccharide (LPS, L2630, Sigma–Aldrich, USA)‐induced macrophage inflammation model. RAW264.7 cells were pretreated with various compounds or (+)3C‐20 at different concentrations for 3 h, and then stimulated with LPS (100 ng mL^−1) for 2 h for the detection of pro‐inflammatory factors expressions. Similarly, following 3 h co‐incubation with (+)3C‐20, mouse BMDMs were stimulated with LPS (100 ng mL^−1) for 3 h. TNF‐α protein in the culture medium supernatant was measured by a commercial ELISA kit (#1 217 202, DAKEWE, China) following the manufacture's protocols.

## O=C(CCc1ccc(C(F)(F)F)cc1)O[C@@H]1C(=O)NCCc2c([nH]c3ccccc23)[C@H]1c1ccc(C(F)(F)F)cc1 [(+)3C-20]
[1]
  cytosolic mtDNA release: markedly reduced
[2]
  cell viability: 103.97 ± 3.88
[3]; 10 μM + LPS (100 ng/mL), n = 3, read-out: Inhibition rate (%) of TNF-α release
  inhibition at 10 µM: 82 ± 3.93%
[3]; read-out: IC50, inhibition of LPS-induced TNF-α release
  IC50: 11.8 µM
